In publication PMC9440028, “Neurotensin analogs by fluoroglycosylation at N^ω-carbamoylated arginines for PET imaging of NTS1-positive tumors” (Scientific Reports, 2022):
Like-named read-outs stand apart in the source and are kept apart here.

How the values were obtained:
hNTS1R = biological target: T1, hNTS1R (Homo sapiens, UniProt P30989); experiment: Radioligand competition binding with [^3H]UR-MK300 at intact HT-29 cells; conditions: [^3H]UR-MK300 (Kd = […], c = 1 nM), 23 °C
T1 construct: at hNTS1R expressing intact human HT-29 colon carcinoma cells; endogenous in cells; host or cells: HT-29 human colon carcinoma cells (intact)
T1 sequence (P30989 whole entry): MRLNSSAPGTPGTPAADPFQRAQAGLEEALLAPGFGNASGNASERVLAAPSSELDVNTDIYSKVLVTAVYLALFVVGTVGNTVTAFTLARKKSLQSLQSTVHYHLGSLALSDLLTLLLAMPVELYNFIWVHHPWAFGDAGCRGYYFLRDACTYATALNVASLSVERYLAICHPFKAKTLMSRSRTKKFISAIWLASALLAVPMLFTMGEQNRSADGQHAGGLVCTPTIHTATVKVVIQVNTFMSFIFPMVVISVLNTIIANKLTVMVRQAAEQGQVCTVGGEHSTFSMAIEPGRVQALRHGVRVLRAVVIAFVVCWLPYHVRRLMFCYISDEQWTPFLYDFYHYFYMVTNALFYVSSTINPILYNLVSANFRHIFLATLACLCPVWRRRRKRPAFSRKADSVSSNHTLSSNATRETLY
Experimental: Unspecific binding was subtracted from total binding to obtain specific binding. Data analysis was performed by plotting % specifically bound radioligand (100% = specifically bound radioligand in the absence of competitor) over log(concentration of competitor) followed by a four-parameter logistic fit (SigmaPlot 12.5, Systat Software). […] The Ki values from individual experiments were transformed to pKi values, followed by the calculation of mean pKi values ± SEM.

[1] = In vitro stability in human plasma/PBS (1:2 v/v) at 37 °C; type: in vitro ADME; conditions: human blood plasma/PBS (1:2 v/v), read-out: % intact peptide in human plasma after the given incubation time; for remaining at 10 min, 100 µM: pH 7.4, 10 min; for remaining at 1 h, 100 µM: pH 7.4, 1 h; for remaining at 6 h, 100 µM: pH 7.4, 6 h; for remaining at 24 h, 100 µM: pH 7.4, 24 h; for remaining at 48 h, 100 µM: pH 7.4, 48 h; for remaining at 25 min, 100 µM: pH 7.4, 25 min; for remaining at 2 h, 100 µM: pH 7.4, 2 h
Experimental: The metabolic stabilities of 11–14, 16 and 18–21 (cf. Table 2) were investigated in human blood plasma/PBS (136.9 mM NaCl, 2.68 mM KCl, 5.62 mM Na2HPO4, 1.09 mM NaH2PO4 and 1.47 mM KH2PO4) pH 7.4 (1:2, v/v) according to a described procedure[13] with the following modifications: 5 mM stock solutions in EtOH/0.04% aq TFA (30:70 v/v) (11–13), MeCN/0.025% aq TFA (30:70 v/v) (14), MeCN/0.04% aq TFA (30:70 v/v) (16, 19 and 21) or EtOH/H2O (40:60 v/v) (18, 20) were used for the addition of the peptides to plasma/PBS (1:2 v/v). As the RP-HPLC purity of 1-Methyl-D-Trp (internal standard, IS) was < 95% (data not shown), the compound was purified by preparative HPLC to give a purity of > 99%. The concentration of the peptides in plasma/PBS (1:2 v/v) was 80 and 4 µM (recovery determination) or 100 µM (stability tests). The obtained recoveries and the recovery ratios (peptide/internal standard) are summarized in Supplementary Table S1. Data analysis was based on UV detection at 220 nm. Additionally, the stability of compound 21 was investigated in mouse plasma/PBS (1:2 v/v) using the same procedure as described above for human plasma. Mouse plasma was obtained by the collection of blood from anaesthetized mice via cardiac puncture using a syringe that was rinsed with sodium heparin (25,000 I.E., Ratiopharm, Ulm, Germany). The heparinized blood was transferred into a 2-mL reaction vessel, followed by centrifugation (1200 g, 4 °C, 10 min). The supernatants were pooled, centrifuged again (1200 g, 4 °C, 10 min), the plasma was aliquoted and stored at − 80 °C. The concentration of 21 in plasma/PBS (1:2 v/v) was 80 and 4 μM (recovery determination) or 100 μM (stability tests). The obtained recoveries and the recovery ratios (21/IS) are summarized in Supplementary Table S2. Data analysis was based on UV detection at 220 nm.

[2] = read-out: pKi ± SEM (converted)

SMILES: CC(C)C[C@H](NC(=O)[C@@H](NC(=O)[C@H](Cc1ccc(O)cc1)NC(=O)[C@@H]1CCCN1C(=O)[C@H](CCCNC(=N)N)NC(=O)[C@@H](N)CCCNC(=N)NC(=O)NCCCCN)C(C)(C)C)C(=O)O [Compound 14, N^ω-[(4-aminobutyl)aminocarbonyl]Arg-Arg-Pro-Tyr-2-tert-butyl-Gly-Leu-OH tetrakis(hydrotrifluoroacetate)]
- Ki (hNTS1R; mean, read-out: Ki (converted)): 2.2 nM
- Ki (hNTS1R; [2]): 2.04 nM
- remaining at 10 min, 100 µM [1]: 50 ± 2%
- remaining at 1 h, 100 µM [1]: < 1%
- remaining at 6 h, 100 µM [1]: < 1%
- remaining at 24 h, 100 µM [1]: < 1%

SMILES: C#CCCC(=O)NCCCCNC(=O)NC(=N)NCCC[C@H](NC)C(=O)N[C@@H](CCCNC(=N)N)C(=O)N1CCC[C@H]1C(=O)N[C@@H](Cc1ccc(O)cc1)C(=O)N[C@H](C(=O)N[C@@H](CC(C)C)C(=O)O)C(C)(C)C [Compound 19, N^α-methyl-{N^ω-[N-(4-pent-4-ynoylaminobutyl)aminocarbonyl]}Arg-Arg-Pro-Tyr-2-tert-butyl-Gly-Leu-OH tris(hydrotrifluoroacetate)]
- Ki (hNTS1R; mean, read-out: Ki (converted)): 7.7 nM
- remaining at 1 h, 100 µM [1]: > 99%
- remaining at 6 h, 100 µM [1]: > 99%
- remaining at 24 h, 100 µM [1]: > 99%
- remaining at 48 h, 100 µM [1]: 99 ± 1%

SMILES: CN[C@@H](CCCNC(=N)NC(=O)NCCCCN)C(=O)N[C@@H](CCCNC(=N)N)C(=O)N1CCC[C@H]1C(=O)N[C@@H](Cc1ccc(O)cc1)C(=O)N[C@H](C(=O)N[C@@H](CC(C)C)C(=O)O)C(C)(C)C [Compound 16, N^α-methyl-N^ω-[(4-aminobutyl)aminocarbonyl]Arg-Arg-Pro-Tyr-2-tert-butyl-Gly-Leu-OH tetrakis(hydrotrifluoroacetate)]
- Ki (hNTS1R; mean, read-out: Ki (converted)): 2.8 nM
- remaining at 1 h, 100 µM [1]: > 99%
- remaining at 6 h, 100 µM [1]: > 99%
- remaining at 24 h, 100 µM [1]: > 99%
- remaining at 48 h, 100 µM [1]: > 99%

SMILES: CC(C)C[C@H](NC(=O)[C@@H](NC(=O)[C@H](Cc1ccc(O)cc1)NC(=O)[C@@H]1CCCN1C(=O)[C@H](CCCNC(=N)NC(=O)NCCCCc1cn([C@@H]2O[C@H](CF)[C@@H](O)[C@H](O)[C@H]2O)nn1)NC(=O)[C@@H](N)CCCNC(=N)N)C(C)(C)C)C(=O)O [Compound 12, H-Arg-{N^ω-[N-(4-{1-[6-deoxy-6-fluoro-β-D-glucopyranosyl]-1H-1,2,3-triazol-4-yl}butyl)aminocarbonyl]}Arg-Pro-Tyr-2-tert-butyl-Gly-Leu-OH tris(hydrotrifluoroacetate)]
- Ki (hNTS1R; mean, read-out: Ki (converted)): 5.8 nM
- Ki (hNTS1R; [2]): 5.5 nM
- remaining at 10 min, 100 µM [1]: 86 ± 1%
- remaining at 25 min, 100 µM [1]: 28 ± 1%
- remaining at 1 h, 100 µM [1]: < 1%
- remaining at 2 h, 100 µM [1]: < 1%

SMILES: CN[C@@H](CCCNC(=N)N)C(=O)N[C@@H](CCCNC(=N)NC(=O)NCCCCc1cn([C@@H]2O[C@H](CF)[C@@H](O)[C@H](O)[C@H]2O)nn1)C(=O)N1CCC[C@H]1C(=O)N[C@@H](Cc1ccc(O)cc1)C(=O)N[C@H](C(=O)N[C@@H](CC(C)C)C(=O)O)C(C)(C)C [Compound 13, N^α-(N^α-methylarginyl)-{N^ω-[N-(4-{1-[6-deoxy-6-fluoro-β-D-glucopyranosyl]-1H-1,2,3-triazol-4-yl}butyl)aminocarbonyl]}Arg-Pro-Tyr-2-tert-butyl-Gly-Leu-OH tris(hydrotrifluoroacetate)]
- Ki (hNTS1R; mean): one-digit nanomolar range
- Ki (hNTS1R; mean, read-out: Ki (converted)): 6.2 nM
- remaining at 2 h, 100 µM [1]: > 99%
- remaining at 6 h, 100 µM [1]: > 99%
- remaining at 24 h, 100 µM [1]: > 99%
- remaining at 48 h, 100 µM [1]: 96 ± 1%

SMILES: C#CCCCCNC(=O)NC(=N)NCCC[C@H](NC(=O)[C@@H](N)CCCNC(=N)N)C(=O)N1CCC[C@H]1C(=O)N[C@@H](Cc1ccc(O)cc1)C(=O)N[C@H](C(=O)N[C@@H](CC(C)C)C(=O)O)C(C)(C)C [Compound 8, H-Arg-(N^ω-5-hexynylaminocarbonyl)Arg-Pro-Tyr-2-tert-butyl-Gly-Leu-OH tris(hydrotrifluoroacetate)]
- pKi ± SEM (hNTS1R): 8.03 ± 0.03
- Ki (hNTS1R; mean, read-out: Ki (converted)): 9.4 nM

SMILES: C#CCCCCNC(=O)NC(=N)NCCC[C@H](N)C(=O)N[C@@H](CCCNC(=N)N)C(=O)N1CCC[C@H]1C(=O)N[C@@H](Cc1ccc(O)cc1)C(=O)N[C@H](C(=O)N[C@@H](CC(C)C)C(=O)O)C(C)(C)C [Compound 7, H-(N^ω-5-hexynylaminocarbonyl)Arg-Arg-Pro-Tyr-2-tert-butyl-Gly-Leu-OH tris(hydrotrifluoroacetate)]
- Ki (hNTS1R; mean, read-out: Ki (converted)): 4.6 nM
- Ki (hNTS1R; [2]): 4.37 nM

SMILES: C#CCCC(=O)NCCCCNC(=O)NC(=N)NCCC[C@H](N)C(=O)N[C@@H](CCCNC(=N)N)C(=O)N1CCC[C@H]1C(=O)N[C@@H](Cc1ccc(O)cc1)C(=O)N[C@H](C(=O)N[C@@H](CC(C)C)C(=O)O)C(C)(C)C [Compound 18, H-{N^ω-[N-(4-pent-4-ynoylaminobutyl)aminocarbonyl]}Arg-Arg-Pro-Tyr-2-tert-butyl-Gly-Leu-OH tris(hydrotrifluoroacetate)]
- Ki (hNTS1R; mean, read-out: Ki (converted)): 4.4 nM
- Ki (hNTS1R; [2]): 4.27 nM
- remaining at 10 min, 100 µM [1]: 59 ± 1%
- remaining at 1 h, 100 µM [1]: < 1%
- remaining at 6 h, 100 µM [1]: < 1%
- remaining at 24 h, 100 µM [1]: < 1%

SMILES: CC(C)C[C@H](NC(=O)[C@@H](NC(=O)[C@H](Cc1ccc(O)cc1)NC(=O)[C@@H]1CCCN1C(=O)[C@H](CCCNC(=N)N)NC(=O)[C@@H](N)CCCNC(=N)NC(=O)NCCCCc1cn([C@@H]2O[C@H](CF)[C@@H](O)[C@H](O)[C@H]2O)nn1)C(C)(C)C)C(=O)O [Compound 11, H-{N^ω-[N-(4-{1-[6-deoxy-6-fluoro-β-D-glucopyranosyl]-1H-1,2,3-triazol-4-yl}butyl)aminocarbonyl]}Arg-Arg-Pro-Tyr-2-tert-butyl-Gly-Leu-OH tris(hydrotrifluoroacetate)]
- Ki (hNTS1R; mean, read-out: Ki (converted)): 4.6 nM
- remaining at 10 min, 100 µM [1]: 72 ± 1%
- remaining at 25 min, 100 µM [1]: 24 ± 1%
- remaining at 1 h, 100 µM [1]: 1.1 ± 0.1%
- remaining at 2 h, 100 µM [1]: < 1%

SMILES: CC(C)C[C@H](NC(=O)[C@@H](NC(=O)[C@H](Cc1ccc(O)cc1)NC(=O)[C@@H]1CCCN1C(=O)[C@H](CCCNC(=N)N)NC(=O)[C@@H](N)CCCNC(=N)NC(=O)NCCCCNC(=O)CCc1cn([C@@H]2O[C@H](CF)[C@@H](O)[C@H](O)[C@H]2O)nn1)C(C)(C)C)C(=O)O [Compound 20, H-(N^ω-{N-[4-(3-{1-[6-deoxy-6-fluoro-β-D-glucopyranosyl]-1H-1,2,3-triazol-4-yl}propanoyl)aminobutyl]aminocarbonyl})Arg-Arg-Pro-Tyr-2-tert-butyl-Gly-Leu-OH tris(hydrotrifluoroacetate)]
- Ki (hNTS1R; mean, read-out: Ki (converted)): 2.5 nM
- remaining at 10 min, 100 µM [1]: 78 ± 1%
- remaining at 1 h, 100 µM [1]: 6.4 ± 0.1%
- remaining at 24 h, 100 µM [1]: < 1%

SMILES: C#CCCCCNC(=O)NC(=N)NCCC[C@H](NC(=O)[C@H](CCCNC(=N)N)NC)C(=O)N1CCC[C@H]1C(=O)N[C@@H](Cc1ccc(O)cc1)C(=O)N[C@H](C(=O)N[C@@H](CC(C)C)C(=O)O)C(C)(C)C [Compound 9, N^α-(N^α-methylarginyl)-N^ω-(5-hexynylaminocarbonyl)Arg-Pro-Tyr-2-tert-butyl-Gly-Leu-OH tris(hydrotrifluoroacetate)]
- Ki (hNTS1R; mean, read-out: Ki (converted)): 7.7 nM
- Ki (hNTS1R; [2]): 7.41 nM
